# “Also recorded” adds a separate entry of the source.
# Tests used:
# Format in all cases: in vivo, human
# [1] = Example 3 Part C: tablet single ascending doses, morning fasted vs 8 p.m., plasma pharmacokinetics; conditions: for half-life: Mean (SD); for AUC(0-inf): AUCinf
# Experimental: Patients with severe major depressive disorder (MDD) aged 18 to 65 years were treated with an oral suspension or tablet of Compound 1 to study the effect of food and time of administration on the pharmacokinetics, as well as the safety and tolerability of these formulations.
# Part C is a randomized, participant- and Investigator-blinded, Sponsor-unblinded, placebo-controlled, parallel-group design to evaluate the pharmacokinetics and safety of single ascending doses of a Compound 1 citrate tablet. One cohort of 16 participants was planned, with 12 participants receiving Compound 1 and 4 participants receiving placebo. Part C also evaluated administration of a single dose level at 8 p.m., both 2 hours and 4 hours after dinner.
# Preliminary pharmacokinetics data from Part A, where 45 mg and 60 mg of oral suspension were administered (Cohort 1), and Part C, where 40 mg (2×20 mg), 60 mg (3×20 mg) and 80 mg (4×20 mg) of the tablet formulation were administered, have been analyzed and are summarized below.
# A tablet comprising Compound 1 was administered as single ascending doses of 40 mg, 60 mg and 80 mg under fasted conditions in the morning (FIG. 5). The 60 mg dosage was administered on two additional occasions at 8 p.m., once 4 hours after dinner and once 2 hours after dinner (FIG. 6).
# [2] = tested on: patients with severe major depressive disorder (MDD); test: Open-label study in severe MDD, Part A efficacy (HAM-D); conditions: for patients meeting the HAM-D Response or Remission criteria: Day 15
# Experimental: The study is an open-label, study comprised of two dosing periods, Part A and Part B, during which patients were treated with an oral suspension of Compound 1. Part A was an open-label assessment of two dose levels of Compound 1 (45 mg qHS Cohort 1 and 80 mg qHS Cohort, i.e., once daily administration at bedtime) administered for 7 days inpatient followed by 7 days outpatient. Compound 1 was administered at 4 p.m. on Day 1 in order to collect post-dosing PK samples that could not be collected with qHS dosing.
# (§1) In Part A, participants were administered daily doses of Compound 1 (45 mg Cohort and 80 mg Cohort) at 4 p.m. on Day 1 and qHS on all other study days for 7 days inpatient followed by 7 days outpatient (with subsequent Cohorts receiving up to 120 mg qHS). Participants checked into the clinic on Day 1. During this period the following assessments were performed: adverse event assessments, vital signs, physical examinations, blood and urine samples for safety assessments, ECGs, C-SSRS assessments, blood samples for PK, and efficacy assessments (HAM-D, MADRS, HAM-A, CGI [CGI-S and CGI-I], PSQI, and SDQ). Baseline assessments occurred on Day 1 prior to administration of study drug. On Day 8, prior to discharge, participants were supplied with sufficient Compound 1 to complete 7 days of dosing.
# Patients were administered daily doses of Compound 1 for 7 days inpatient followed by 7 days outpatient.
# In the 45 mg Cohort, patients were administered once daily dose of 45 mg of Compound 1 at bedtime for 7 days inpatient followed by once daily dose of 45 mg of Compound 1 at bedtime for 7 days outpatient.
# In the 80 mg Cohort, patients were administered once daily dose of 80 mg of Compound 1 at bedtime for 7 days inpatient followed by once daily dose of 80 mg of Compound 1 at bedtime for 7 days outpatient.
# Part A: In Part A, HAM-D, MADRS, HAM-A, CGI-S, and CGI-I values were collected in the morning of Days 1, 2, 3, 4, 5, 6, 7, 8, 15, 21 and 28. PSQI and SDQ values will be collected on Days 1, 8, 15, 21 and 28. Part B: In Part B, HAM-D, MADRS, HAM-A, CGI-S, CGI-I, PSQI and SDQ values will be collected on the days described for Part A.
# HAM-D Response was defined as a reduction from baseline of ≥50% in total HAM-D score. HAM-D remission was defined as a total HAM-D score of ≤7.
# Efficacy analysis: For both parts of the clinical trial, the HAM-D total score and change from baseline values will be summarized by treatment group and time point. In addition, the change from baseline in HAM-D total score will also be analyzed using paired t-tests or similar methods. The null hypothesis of this test is that the mean difference in HAM-D total score between paired observations (i.e., pre- and post-treatment) is zero. Similar analysis methods will be used for all secondary and exploratory efficacy variables.
# [3] = Safety and tolerability in MDD patients (Part A); conditions: 80 mg once daily for 14 days in MDD patients
# Experimental: as §1
smiles,measurement,setting,value
"COC[C@@]1(O)CC[C@@]2(C)[C@@H](CC[C@@H]3[C@@H]2CC[C@]2(C)[C@@H](C(=O)Cn4ccnc4)CC[C@@H]32)C1 [Compound 1, 3α-Hydroxy-3β-methoxymethyl-21-(1′-imidazolyl)-5α-pregnan-20-one]",Tmax,"[1]; human, in vivo, 40 mg",1.5 h
same,half-life,"[1]; human, in vivo, 40 mg, 9 a.m. administration (fasted), N = 13",11.9 h
same,AUC(0-inf),"[1]; human, in vivo, 40 mg",1390 ng·h/mL
same,Cmax,"[1]; human, in vivo, 40 mg",181 ng/mL
same,Tmax,"[1]; human, in vivo, 60 mg",2.5 h
same,tmax,"[1]; human, in vivo, 60 mg","2.5 (1.0, 3.0) h"
same,half-life,"[1]; human, in vivo, 60 mg, 8 p.m. administration (60 mg), 2 h after dinner, N = 12",9.6 h
same,half-life,"[1]; human, in vivo, 60 mg, 8 p.m. administration (60 mg), 4 h after dinner, N = 11",11.4 h
same,half-life,"[1]; human, in vivo, 60 mg, 9 a.m. administration (fasted), N = 12",11.5 h
same,AUC(0-inf),"[1]; human, in vivo, 60 mg",2610 ng·h/mL
same,Cmax,"[1]; human, in vivo, 60 mg",408 ng/mL
same,half-life,"[1]; human, in vivo, 80 mg, 9 a.m. administration (fasted), N = 12",11.4 h
same,AUC(0-inf),"[1]; human, in vivo, 80 mg",3980 ng·h/mL
same,Cmax,"[1]; human, in vivo, 80 mg",546 ng/mL
same,dose proportionality of exposure,"[1]; tablet, fasted, between 60 mg and 80 mg",closer to dose-proportional
same,increase in exposure over a 2-fold increase in dose,"[1]; tablet, fasted, from 40 mg to 80 mg",~3 fold
same,patients meeting the HAM-D Response or Remission criterion,"[2]; 45 mg Cohort (qHS), Day 7",11 of the 13
same,patients meeting the HAM-D Response or Remission criteria,[2]; 45 mg Cohort (qHS),8 of the 13
same,patients meeting the HAM-D Response or Remission criteria,[2]; 80 mg Cohort (qHS),6 of the 7
same,Efficacy (reduction Mean Change from Baseline in HAM-D score),[2]; as monotherapy (no background antidepressant) and in combination with another antidepressant,observed
same,symptoms of MDD,[2]; daily dose of 45 mg or 80 mg,reduced symptoms of moderate to severe MDD
same,Efficacy (reduction Mean Change from Baseline in HAM-D score),[2]; patients in first course of antidepressant treatment and patients that failed previous courses,observed
same,tolerability,[3],well tolerated with no change in Adverse Event profile; also recorded: well-tolerated
